Assay results as given in the NIST ThermoML archive (doi:10.1016/j.jct.2012.03.017).
“And” between values parts separate entries of the source, which are not always exact repeats. Equal entries are not always repeated. Numbers after ± are expanded uncertainties.

Experiments:
[1] = Crystal, Calculated from knudsen effusion weight loss
[2] = molar enthalpy of vaporization or sublimation; details: 298.15 K; Crystal; drop calorimetry

OC1c2ccccc2Oc2ccccc21 [9H-xanthen-9-ol]
[1]
Details | vapor or sublimation pressure
333.18 K | 6.91e-05 ± 2e-05 kPa and 5.67e-05 ± 2e-05 kPa and 6.28e-05 ± 2e-05 kPa
335.14 K | 8.54e-05 ± 2e-05 kPa and 8.17e-05 ± 2e-05 kPa and 7.79e-05 ± 2e-05 kPa
337.08 K | 0.0001045 ± 2e-05 kPa and 0.0001126 ± 2e-05 kPa and 0.0001038 ± 2e-05 kPa
339.18 K | 0.0001355 ± 2.1e-05 kPa and 0.0001321 ± 2.1e-05 kPa and 0.000152 ± 2.1e-05 kPa
341.13 K | 0.0001838 ± 2.1e-05 kPa and 0.0001813 ± 2.1e-05 kPa and 0.0001645 ± 2.1e-05 kPa
343.08 K | 0.0002256 ± 2.2e-05 kPa and 0.0002318 ± 2.2e-05 kPa and 0.0002156 ± 2.1e-05 kPa
345.08 K | 0.0002616 ± 2.2e-05 kPa and 0.0002749 ± 2.2e-05 kPa and 0.0002595 ± 2.2e-05 kPa
347.14 K | 0.0003355 ± 2.3e-05 kPa and 0.0003321 ± 2.3e-05 kPa and 0.0003104 ± 2.3e-05 kPa
349.17 K | 0.0004364 ± 2.5e-05 kPa and 0.0003742 ± 2.4e-05 kPa and 0.0003877 ± 2.4e-05 kPa
351.07 K | 0.0005411 ± 2.8e-05 kPa and 0.0005557 ± 2.8e-05 kPa and 0.0005348 ± 2.8e-05 kPa
353.12 K | 0.0006853 ± 3.1e-05 kPa and 0.0006411 ± 3e-05 kPa and 0.0006134 ± 3e-05 kPa
355.18 K | 0.0008786 ± 3.7e-05 kPa and 0.0007534 ± 3.3e-05 kPa and 0.0007633 ± 3.4e-05 kPa

NC(=O)C1c2ccccc2Oc2ccccc21 [9H-xanthene-9-carboxamide]
Details | molar enthalpy [kcal/mol]
[2] | 31.1 ± 1

[1]
Details | vapor or sublimation pressure
399.14 K | 0.0001229 ± 2.1e-05 kPa and 0.0001189 ± 2e-05 kPa and 0.000116 ± 2e-05 kPa
401.14 K | 0.000154 ± 2.1e-05 kPa and 0.0001484 ± 2.1e-05 kPa and 0.000144 ± 2.1e-05 kPa
403.16 K | 0.0001893 ± 2.1e-05 kPa and 0.0001856 ± 2.1e-05 kPa and 0.0001767 ± 2.1e-05 kPa
405.15 K | 0.0002159 ± 2.1e-05 kPa and 0.0002174 ± 2.1e-05 kPa
407.19 K | 0.0002731 ± 2.2e-05 kPa and 0.0002662 ± 2.2e-05 kPa
409.17 K | 0.0003106 ± 2.3e-05 kPa and 0.0002981 ± 2.3e-05 kPa and 0.0003072 ± 2.3e-05 kPa
411.15 K | 0.0003968 ± 2.4e-05 kPa and 0.0003833 ± 2.4e-05 kPa
413.19 K | 0.0004758 ± 2.6e-05 kPa and 0.0004828 ± 2.6e-05 kPa and 0.0004614 ± 2.6e-05 kPa
415.15 K | 0.0005574 ± 2.8e-05 kPa and 0.0005463 ± 2.8e-05 kPa
417.17 K | 0.000649 ± 3e-05 kPa and 0.0006492 ± 3e-05 kPa
419.18 K | 0.0007769 ± 3.4e-05 kPa and 0.0008205 ± 3.5e-05 kPa
421.2 K | 0.0009516 ± 3.9e-05 kPa and 0.0009609 ± 3.9e-05 kPa

O=C(O)C1c2ccccc2Oc2ccccc21 [9H-xanthene-9-carboxylic acid]
Details | molar enthalpy [kcal/mol]
[2] | 30 ± 0.717

[1]
Details | vapor or sublimation pressure
383.08 K | 0.000119 ± 2e-05 kPa and 0.0001121 ± 2e-05 kPa and 0.0001132 ± 2e-05 kPa
385.15 K | 0.0001477 ± 2.1e-05 kPa and 0.0001432 ± 2.1e-05 kPa and 0.0001353 ± 2.1e-05 kPa
387.25 K | 0.0001726 ± 2.1e-05 kPa and 0.0001686 ± 2.1e-05 kPa and 0.0001619 ± 2.1e-05 kPa
389.12 K | 0.0002124 ± 2.1e-05 kPa and 0.0002049 ± 2.1e-05 kPa and 0.0002165 ± 2.1e-05 kPa
391.13 K | 0.0002584 ± 2.2e-05 kPa and 0.0002449 ± 2.2e-05 kPa
393.14 K | 0.0003154 ± 2.3e-05 kPa and 0.0003062 ± 2.3e-05 kPa
395.13 K | 0.0003811 ± 2.4e-05 kPa and 0.0003776 ± 2.4e-05 kPa and 0.0003653 ± 2.4e-05 kPa
397.11 K | 0.0004814 ± 2.6e-05 kPa and 0.0004632 ± 2.6e-05 kPa
399.14 K | 0.0005597 ± 2.8e-05 kPa and 0.0005447 ± 2.8e-05 kPa and 0.0005518 ± 2.8e-05 kPa
401.13 K | 0.0006834 ± 3.1e-05 kPa and 0.0006937 ± 3.2e-05 kPa and 0.0006737 ± 3.1e-05 kPa
403.12 K | 0.0008362 ± 3.6e-05 kPa and 0.0008293 ± 3.6e-05 kPa and 0.0007816 ± 3.4e-05 kPa
405.15 K | 0.0009639 ± 3.9e-05 kPa and 0.0009409 ± 3.9e-05 kPa
